From patent US20180368410A1, “MICROBIOCIDAL OXADIAZOLE DERIVATIVES” (SYNGENTA PARTICIPATIONS AG, priority 2015, published 2018)

How the values were obtained:
[1] = tested on: Glomerella Lacenarium (Colletotrichum lacenarium); experiment: Glomerella lagenarium (Colletotrichum lagenarium) liquid culture / cucumber / preventative (anthracnose); type: cell-based; conditions: 20 ppm in the applied formulation, liquid culture in PDB, 24° C., inhibition of growth measured photometrically 3 to 4 days after application, vs untreated control, read-out: disease control
Procedure: Mycelia fragments or conidia suspensions of a fungus prepared either freshly from liquid cultures of the fungus or from cryogenic storage, are directly mixed into nutrient broth. DMSO solutions of the test compound (max. 10 mg/ml) are diluted with 0.025% Tween20 by a factor of 50 and 10 μl of this solution is pipetted into a microtiter plate (96-well format). The nutrient broth containing the fungal spores/mycelia fragments is then added to give an end concentration of the tested compound. The test plates are incubated in the dark at 24° C. and 96% relative humidity. The inhibition of fungal growth is determined photometrically after 2 to 7 days, depending on the pathosystem, and percent antifungal activity relative to the untreated check is calculated.
Conidia of the fungus from cryogenic storage are directly mixed into nutrient broth (PDB—potato dextrose broth). After placing a (DMSO) solution of test compound into a microtiter plate (96-well format), the nutrient broth containing the fungal spores is added. The test plates are incubated at 24° C. and the inhibition of growth is measured photometrically 3 to 4 days after application.
The following compounds at 20 ppm in the applied formulation give at least 80% disease control in this test when compared to untreated control under the same conditions, which show extensive disease development.

[2] = tested on: Puccinia recondita f. Sp. Tritici; experiment: Puccinia recondita f. sp. tritici / wheat / leaf disc preventative (brown rust); type: in vivo, Puccinia recondita f. sp. tritici on wheat cv. Kanzler; conditions: foliar, 200 ppm in the applied formulation, inoculated 1 day after application, assessed 7 to 9 days after application, vs untreated control leaf disks, read-out: disease control
Procedure: Leaf disks or leaf segments of various plant species are cut from plants grown in a greenhouse. The cut leaf disks or segments are placed in multiwell plates (24-well format) onto water agar. The leaf disks are sprayed with a test solution before (preventative) or after (curative) inoculation. Compounds to be tested are prepared as DMSO solutions (max. 10 mg/ml) which are diluted to the appropriate concentration with 0.025% Tween20 just before spraying. The inoculated leaf disks or segments are incubated under defined conditions (temperature, relative humidity, light, etc.) according to the respective test system. A single evaluation of disease level is carried out 3 to 14 days after inoculation, depending on the pathosystem. Percent disease control relative to the untreated check leaf disks or segments is then calculated. Wheat leaf segments cv. Kanzler were placed on agar in multiwell plates (24-well format) and sprayed with the formulated test compound diluted in water. The leaf disks were inoculated with a spore suspension of the fungus 1 day after application. The inoculated leaf segments were incubated at 19′C and 75% relative humidity (rh) under a light regime of 12 hours light/12 hours darkness in a climate cabinet and the activity of a compound was assessed as percent disease control compared to untreated when an appropriate level of disease damage appears in untreated check leaf segments (7 to 9 days after application). The following compounds at 200 ppm in the applied formulation give at least 80% disease control in this test when compared to untreated control leaf disks under the same conditions, which show extensive disease development.

[3] = tested on: Puccinia recondita f. Sp. Triticil; experiment: Puccinia recondita f. sp. tritici / wheat / leaf disc curative (brown rust); type: in vivo, Puccinia recondita f. sp. tritici on wheat cv. Kanzler; conditions: foliar, 200 ppm in the applied formulation, applied 1 day after inoculation, assessed 6 to 8 days after application, vs untreated control leaf disks, read-out: disease control
Procedure: Leaf disks or leaf segments of various plant species are cut from plants grown in a greenhouse. The cut leaf disks or segments are placed in multiwell plates (24-well format) onto water agar. The leaf disks are sprayed with a test solution before (preventative) or after (curative) inoculation. Compounds to be tested are prepared as DMSO solutions (max. 10 mg/ml) which are diluted to the appropriate concentration with 0.025% Tween20 just before spraying. The inoculated leaf disks or segments are incubated under defined conditions (temperature, relative humidity, light, etc.) according to the respective test system. A single evaluation of disease level is carried out 3 to 14 days after inoculation, depending on the pathosystem. Percent disease control relative to the untreated check leaf disks or segments is then calculated.
Wheat leaf segments cv. Kanzler are placed on agar in multiwell plates (24-well format). The leaf segments are then inoculated with a spore suspension of the fungus. Plates were stored in darkness at 19° C. and 75% relative humidity. The formulated test compound diluted in water was applied 1 day after inoculation. The leaf segments were incubated at 19° C. and 75% relative humidity under a light regime of 12 hours light/12 hours darkness in a climate cabinet and the activity of a compound was assessed as percent disease control compared to untreated when an appropriate level of disease damage appears in untreated check leaf segments (6 to 8 days after application).
The following compounds at 200 ppm in the applied formulation give at least 80% disease control in this test when compared to untreated control leaf disks under the same conditions, which show extensive disease development.

SMILES	inhibition of growth at 20 ppm [1] [%]	pest or weed control at 200 ppm [2] [%]	pest or weed control at 200 ppm [3] [%]
COc1ccc(C2(C(=O)NCc3ccc(-c4noc(C(F)(F)F)n4)cc3)CC2)cc1 [Compound 1.38, 1-(4-methoxyphenyl)-N-[[4-[5-(trifluoromethyl)-1,2,4-oxadiazol-3-yl]phenyl]methyl] cyclopropanecarboxamide]	≥ 80	≥ 80	–
Cc1cc(C(=O)NCc2ccc(-c3noc(C(F)(F)F)n3)cc2)c(C)o1 [Compound 1.41, 2,5-dimethyl-N-[[4-[5-(trifluoromethyl)-1,2,4-oxadiazol-3-yl]phenyl]methyl]furan-3-carboxamide]	–	≥ 80	≥ 80
O=C(NCc1ccc(-c2noc(C(F)(F)F)n2)cc1)c1c(Cl)cccc1Cl [Compound 1.42, 2,6-dichloro-N-[[4-[5-(trifluoromethyl)-1,2,4-oxadiazol-3-yl]phenyl]methyl]benzamide]	–	≥ 80	–
O=C(NCc1ccc(-c2noc(C(F)(F)F)n2)cc1)c1ccccc1C(F)(F)F [Compound 1.43, 2-(trifluoromethyl)-N-[[4-[5-(trifluoromethyl)-1,2,4-oxadiazol-3-yl]phenyl]methyl]benzamide]	–	≥ 80	–
O=C(NCc1ccc(-c2noc(C(F)(F)F)n2)cn1)c1ccccc1Cl [Compound 1.44, 2-chloro-N-[[5-[5-(trifluoromethyl)-1,2,4-oxadiazol-3-yl]-2-pyridyl]methyl]benzamide]	≥ 80	≥ 80	≥ 80
O=C(NCc1ccc(-c2noc(C(F)(F)F)n2)cn1)C1CC1 [Compound 1.45, N-[[5-[5-(trifluoromethyl)-1,2,4-oxadiazol-3-yl]-2-pyridyl]methyl] cyclopropanecarboxamide]	≥ 80	≥ 80	≥ 80
O=C(NCc1ccc(-c2noc(C(F)(F)F)n2)cn1)C1CCCO1 (stereo not shown) [Compound 1.46, N-[[5-[5-(trifluoromethyl)-1,2,4-oxadiazol-3-yl]-2-pyridyl]methyl]tetrahydrofuran-2-carboxamide]	≥ 80	≥ 80	≥ 80
O=C(NCc1ccc(-c2noc(C(F)(F)F)n2)cc1F)C1CC1 [Compound 1.47, N-[[2-fluoro-4-[5-(trifluoromethyl)-1,2,4-oxadiazol-3-yl]phenyl]methyl] cyclopropanecarboxamide]	≥ 80	≥ 80	≥ 80
O=C(NCc1ccc(-c2noc(C(F)(F)F)n2)cc1F)c1ccccc1Cl [Compound 1.48, 2-chloro-N-[[2-fluoro-4-[5-(trifluoromethyl)-1,2,4-oxadiazol-3-yl]phenyl]methyl]benzamide]	≥ 80	≥ 80	–
O=C(NCc1ccc(-c2noc(C(F)(F)F)n2)cc1Cl)C1CCCO1 (stereo not shown) [Compound 1.50, N-[[2-chloro-4-[5-(trifluoromethyl)-1,2,4-oxadiazol-3-yl]phenyl]methyl]tetrahydrofuran-2-carboxamide]	≥ 80	≥ 80	≥ 80
COc1cc(-c2noc(C(F)(F)F)n2)ccc1CNC(=O)C1CCCO1 (stereo not shown) [Compound 1.51, N-[[2-methoxy-4-[5-(trifluoromethyl)-1,2,4-oxadiazol-3-yl]phenyl]methyl]tetrahydrofuran-2-carboxamide]	≥ 80	–	–
O=C(NCc1ccc(-c2noc(C(F)(F)F)n2)cc1C(F)(F)F)C1CCCO1 (stereo not shown) [Compound 1.52, N-[[2-(trifluoromethyl)-4-[5-(trifluoromethyl)-1,2,4-oxadiazol-3-yl]phenyl]methyl]tetrahydrofuran-2-carboxamide]	≥ 80	–	–
O=C(NCc1ccc(-c2noc(C(F)(F)F)n2)cc1F)C1CCC1 [Compound 1.63, N-[[2-fluoro-4-[5-(trifluoromethyl)-1,2,4-oxadiazol-3-yl]phenyl]methyl] cyclobutanecarboxamide]	≥ 80	≥ 80	≥ 80
O=C(NCc1ccc(-c2noc(C(F)(F)F)n2)c(F)c1)C1CCOC1 (stereo not shown) [Compound 1.68, N-[[3-fluoro-4-[5-(trifluoromethyl)-1,2,4-oxadiazol-3-yl]phenyl]methyl] tetrahydrofuran-3-carboxamide]	≥ 80	≥ 80	≥ 80
O=C(NCc1ccc(-c2noc(C(F)(F)F)n2)cc1F)C1CCOC1 (stereo not shown) [Compound 1.70, N-[[2-fluoro-4-[5-(trifluoromethyl)-1,2,4-oxadiazol-3-yl]phenyl]methyl] tetrahydrofuran-3-carboxamide]	≥ 80	≥ 80	≥ 80
CC1(C(=O)NCc2ccc(-c3noc(C(F)(F)F)n3)cc2F)COC1 [Compound 1.71, N-[[2-fluoro-4-[5-(trifluoromethyl)-1,2,4-oxadiazol-3-yl]phenyl]methyl]-3-methyl-oxetane-3-carboxamide]	≥ 80	≥ 80	≥ 80
O=C(CC1CC1)NCc1ccc(-c2noc(C(F)(F)F)n2)cc1Cl [Compound 1.74, N-[[2-chloro-4-[5-(trifluoromethyl)-1,2,4-oxadiazol-3-yl]phenyl]methyl]-2-cyclopropyl-acetamide]	≥ 80	–	–
CC1(C(=O)NCc2ccc(-c3noc(C(F)(F)F)n3)cc2Cl)CC1 [Compound 1.79, N-[[2-chloro-4-[5-(trifluoromethyl)-1,2,4-oxadiazol-3-yl]phenyl]methyl]-1-methyl-cyclopropanecarboxamide]	≥ 80	–	–
O=C(NCc1ccc(-c2noc(C(F)(F)F)n2)cc1Cl)C1CC1 [Compound 1.81, N-[[2-chloro-4-[5-(trifluoromethyl)-1,2,4-oxadiazol-3-yl]phenyl]methyl] cyclopropanecarboxamide]	≥ 80	–	–
O=C(NCc1ccc(-c2noc(C(F)(F)F)n2)cc1Cl)C1CCOC1 (stereo not shown) [Compound 1.82, N-[[2-chloro-4-[5-(trifluoromethyl)-1,2,4-oxadiazol-3-yl]phenyl]methyl] tetrahydrofuran-3-carboxamide]	≥ 80	–	–
O=C(NCc1ccc(-c2noc(C(F)(F)F)n2)c(F)c1F)C1CCOC1 (stereo not shown) [Compound 1.83, N-[[2,3-difluoro-4-[5-(trifluoromethyl)-1,2,4-oxadiazol-3-yl]phenyl]methyl] tetrahydrofuran-3-carboxamide]	≥ 80	≥ 80	≥ 80
CC1(C(=O)NCc2ccc(-c3noc(C(F)(F)F)n3)cc2Cl)COC1 [Compound 1.84, N-[[2-chloro-4-[5-(trifluoromethyl)-1,2,4-oxadiazol-3-yl]phenyl]methyl]-3-methyl-oxetane-3-carboxamide]	≥ 80	≥ 80	–
